Measured values published in US10934224B2, “Production of arginine-rich proteins from wastewater and use as a fertilizer” (Genebiologics, LLC, priority 2016, dated 2021).

How the values were obtained:
[1] = cited from earlier work
[2] = test system: Arabidopsis thaliana seeds; experiment: Arabidopsis thaliana seed germination and growth in liquid culture; format: in vivo; details: for root growth: 100 μg/ml in water; for optimal level (germination): day 4; for optimal level (biomass): day 5
Description: Approximately 300 Arabidopsis thaliana seeds were soaked in 75% ethanol for one minute, then soaked in 10% bleach, 0.02% TRITON×100 for five minutes, then washed five times with sterile water. The seeds were then resuspended in about 4 ml water, and dispensed into 30 Eppendorf tubes at approximately 100 microliters per tube, for a total of 8-9 seeds per tube. Test conditions included either water, 1× or 0.1×MS medium (Caisson; […] Root length and stem lengths are in mm.

[3] = Inhibition of cobalt binding to cation exchange resin; details: for effect on binding of cobalt to CM sepharose: 2.5 μM CoCl2, 0.95 μM inhibitor
Description: After sitting for 1 minute the sepharose was washed 2× with water to remove excess cobalt and inhibitor. The cobalt was then stripped from the column material with 50 μl of 50 mM EDTA and this cobalt-containing wash was made basic with 50 μl of 50 mM NaOH. The cobalt-containing wash was then monitored on a DU800 spectroscope at 463 nm wavelength for the data of Table 2 (FIG. 7), and from 350 nm to 650 nm for FIG. 5. The data of FIG. 5 and FIG. 7 were from separate experiments acquired on two different days.

E. coli strain NK5992 = experiment: Growth of E. coli arginine auxotroph on arginine or polyarginine; format: cell-based
Description: Cells were grown in triplicate at 37° C. on a 96-well plate with measurement at 600 nm using a Tecan InfiniteM200 pro.

N=C(N)NCCC[C@H](N)C(=O)O [arginine]
pKa of guanidinium group [1]: approximately 12.4 | root growth [2]: not found | optimal level (germination) [2]: 100 µg/mL | effect on percent germination ([2]; day 4, added to 0.1×MS medium): same relative effect | optimal level (biomass) [2]: 100 µg/mL | effect on binding of cobalt to CM sepharose [3]: not by the presence of arginine | effect on binding of cobalt to CM sepharose ([3]; listed as Arginine): enhanced the binding of cobalt | competition with cobalt for binding to CM sepharose ([3]; 2.6-fold excess cobalt per arginine monomer, anionic sites limiting): did not compete

polyarginine
root growth [2]: large amount of root growth | growth ([2]; 0.1× MS, 10 μg/ml, isolated case): increased growth | optimal level (germination) [2]: 100 µg/mL | optimal level (biomass) [2]: 100 µg/mL | growth of arginine auxotroph on the substance (E. coli strain NK5992; M9 medium, 37° C., 600 nm): does grow on polyarginine | growth relative to arginine monomer (E. coli strain NK5992; on a per-monomer equivalency): grows more poorly | effect on binding of cobalt to CM sepharose [3]: inhibited
